pIC50: −log10 of the molar value.

By pIC50 is commonly meant the IC50 on a negative log10 scale, so that one unit is a factor of ten. A lower pIC50 goes with a large IC50.

In this assay the target is T1, CETP (Homo sapiens, UniProt P11597).
T1 construct: Human plasma (50 μL), assay buffer (35 μL) and test compound; tissue New Drug Development Research Center, Inc; host or cells: human EDTA plasma from healthy men
T1 sequence (P11597 18-493): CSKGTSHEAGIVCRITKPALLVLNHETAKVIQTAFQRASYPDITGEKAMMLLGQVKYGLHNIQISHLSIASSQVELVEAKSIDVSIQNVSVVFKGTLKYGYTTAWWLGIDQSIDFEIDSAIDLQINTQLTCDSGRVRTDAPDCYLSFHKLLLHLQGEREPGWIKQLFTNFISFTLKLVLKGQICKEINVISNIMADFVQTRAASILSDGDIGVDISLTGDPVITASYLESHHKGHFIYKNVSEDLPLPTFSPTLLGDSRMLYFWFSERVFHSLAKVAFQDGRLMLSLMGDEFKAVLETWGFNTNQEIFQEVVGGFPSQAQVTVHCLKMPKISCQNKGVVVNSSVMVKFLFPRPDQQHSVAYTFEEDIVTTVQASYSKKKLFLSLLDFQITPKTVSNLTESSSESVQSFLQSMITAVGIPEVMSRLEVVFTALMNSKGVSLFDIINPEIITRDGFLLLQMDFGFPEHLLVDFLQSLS
Put plainly: in vitro CETP activity in human plasma (BODIPY-CE donor microemulsion, fluorescence). The assay is classed as biochemical. The protocol: For purposes of detecting the in vitro and in vivo CETP activity, human pro-apolipoprotein AI (pro-apoAI) and donor microemulsion are prepared as follows. The cDNA of human pro-apoAI (NCBI accession number: NM_000039) is cloned from human liver Quick-Clone™ cDNA (Clontech, CA) and inserted to a pET28a vector (Novagen, Germany) for bacterial expression. Expressed protein as a fusion protein with 6×His-tag at N-terminus in BL-21 Gold (DE3) (Strategene, CA) is purified using HiTrap Chelating (GE Healthcare, CT). Pro-apoAI containing microemulsion as a donor particle is prepared following previous reports (J. Biol. Chem., 280:14918-22). Glyceryl trioleate (62.5 ng, Sigma, Mo.), 3-sn-phosphatidylcholine (583 ng, Wako Pure Chemical Industries, Japan), and cholesteryl BODIPY® FL C12 (250 ng, Invitrogen, CA) are dissolved in 1 mL of chloroform. The solution is evaporated, then residual solvent is removed in vacuum for more than 1 hr. The dried lipid mixture is dissolved in 500 μL of the assay buffer (50 mM Tris-HCl (pH7.4) containing 150 mM NaCl and 2 mM EDTA) and sonicated at 50° C. with a microtip (MICROSON™ ULTRASONIC CELL DISRUPTOR, Misonix, Farmingdale, N.Y.) at output power 006 for 2 min. After sonication, the solution is cooled to 40° C., added to 100 μg of human pro-apoAI, and sonicated at output power 004 for 5 min at 40° C. The solution, BODIPY-CE microemulsion as a donor molecule is stored at 4° C. after filtration through a 0.45 μm PVDF filter.
For purposes of detecting in vitro CETP activity, human EDTA plasma samples from healthy men are purchased from New Drug Development Research Center, Inc. Donor solution is prepared by a dilution of donor microemulsion with assay buffer. Human plasma (50 μL), assay buffer (35 μL) and test compound dissolved in dimethylsulfoxide (1 μL) are added to each well of 96 well half area black flat bottom plate. The reaction is started by the addition of donor solution (14 μL) into each well. Fluorescence intensities are measured every 30 min at 37° C. with excitation wave length of 485 nm and emission wavelength of 535 nm. The CETP activity (Fl/min) is defined as the changes of fluorescence intensity from 30 to 90 min. The IC50 value is obtained by the logistic equation (Y=Bottom+(Top-Bottom)/(1+(x/IC50)̂Hill slope) using Origin software, version 7.5 SR3.
Regarding `CCN(CC1CCCC1)c1nc(C)c(Br)cc1CN(Cc1cc(C(F)(F)F)cc(C(F)(F)F)c1)c1nnn(C)n1` [Compound 4, (3-{[(3,5-Bis-trifluoromethyl-benzyl)-(2-methyl-2H-tetrazol-5-yl)-amino]-methyl}-5-bromo-6-methyl-pyridin-2-yl)-cyclopentylmethyl-ethyl-amine], the negative logarithm of the IC50 (pIC50) is 6.96. For `CCN(CC1CCCC1)c1ncc([N+](=O)[O-])cc1CN(Cc1cc(C(F)(F)F)cc(C(F)(F)F)c1)c1nnn(C)n1` [Compound 8, (3-{[(3,5-Bis-trifluoromethyl-benzyl)-(2-methyl-2H-tetrazol-5-yl)-amino]-methyl}-5-nitro-pyridin-2-yl)-cyclopentylmethyl-ethyl-amine] the value was 6.20; for `CCN(CC1CCCC1)c1ncc(N2CCC2)cc1CN(Cc1cc(C(F)(F)F)cc(C(F)(F)F)c1)c1nnn(C)n1` [Compound 1, (5-Azetidin-1-yl-3-{[(3,5-bis-trifluoromethyl-benzyl)-(2-methyl-2H-tetrazol-5-yl)-amino]-methyl}-pyridin-2-yl)-cyclopentylmethyl-ethyl-amine], 6.59. For `CCN(CC1CCCC1)c1ncc(N(C)C(C)=O)cc1CN(Cc1cc(C(F)(F)F)cc(C(F)(F)F)c1)c1nnn(C)n1` [Compound 2, N-[5-{[(3,5-Bis-trifluoromethyl-benzyl)-(2-methyl-2H-tetrazol-5-yl)-amino]-methyl}-6-(cyclopentylmethyl-ethyl-amino)-pyridin-3-yl]-N-methyl-acetamide], the negative logarithm of the IC50 (pIC50) was 6.43. For `CCN(CC1CCCC1)c1ncc(SC)cc1CN(Cc1cc(C(F)(F)F)cc(C(F)(F)F)c1)c1nnn(C)n1` [Compound 3, (3-{[(3,5-Bis-trifluoromethyl-benzyl)-(2-methyl-2H-tetrazol-5-yl)-amino]-methyl}-5-methylsulfanyl-pyridin-2-yl)-cyclopentylmethyl-ethyl-amine] the value was 6.85.

`CCN(CC1CCCC1)c1ncc(I)cc1CN(Cc1cc(C(F)(F)F)cc(C(F)(F)F)c1)c1nnn(C)n1` [Compound 6, (3-{[(3,5-Bis-trifluoromethyl-benzyl)-(2-methyl-2H-tetrazol-5-yl)-amino]-methyl}-5-iodo-pyridin-2-yl)-cyclopentylmethyl-ethyl-amine] had a pIC50 of 6.64. For `CCCCN(C)c1cnc(N(CC)CC2CCCC2)c(CN(Cc2cc(C(F)(F)F)cc(C(F)(F)F)c2)c2nnn(C)n2)c1` [Compound 7, 3-{[(3,5-Bis-trifluoromethyl-benzyl)-(2-methyl-2H-tetrazol-5-yl)-amino]-methyl}-N*5*-butyl-N*2*-cyclopentylmethyl-N*2*-ethyl-N*5*-methyl-pyridine-2,5-diamine] the value was 6.14; for `CCN(CC1CCCC1)c1ncc(C)cc1CN(Cc1cc(C(F)(F)F)cc(C(F)(F)F)c1)c1nnn(C)n1` [Compound 5, (3-{[(3,5-Bis-trifluoromethyl-benzyl)-(2-methyl-2H-tetrazol-5-yl)-amino]-methyl}-5-methyl-pyridin-2-yl)-cyclopentylmethyl-ethyl-amine], 6.52.

(Values after patent US20090181929A1, “ORGANIC COMPOUNDS” (priority 2006, published 2009).)
